Results taken from patent publication US20110064694A1, “ANTI-HEPATITIS C ACTIVITY OF MESO-TETRAKIS-PORPHYRIN ANALOGUES” (YALE UNIVERSITY, priority 2009, published 2011).
Where two headings read alike, the source gives them in different places.

Columns and labels:
[1] = system: mitochondrial DNA content of CEM cells; assay: Mitochondrial DNA toxicity, slot blot of CEM cell lysates; assay type: cell-based
Description: Quantitation of mitochondrial DNA content was performed as previously published (18). Briefly, CEM cell lysates were spotted onto Hybond paper using the Miliford II slot blot apparatus (Schleicher & Schuell). MTDNA was detected with mtDNA-specific probe and then reprobed with Alu probe for internal control. The autoradiographic bands were quantified on scanning densitometer (Molecular Dynamics).

[2] = system: mitochondrial potential of Huh-luc/neo-ET cells; settings: up to 1 M for 9 days, compared with mock-treated control
Description: We treated Huh-luc/neo-ET cells with up to 1 µM of compound 6 for 9 days, during which the media were replenished every 3 days and the cells were passaged once. Live cells were stained with the ratiometric indicator JC-1 (Invitrogen) in order to measure the mitochondrial potential using confocal microscopy.

[3] = system: HCV genotype 1b (Con1) replicon
Description: Quantification of HCV RNA and NS5A protein. Huhluc/neo-ET cells were seeded at the density of 1×10^5 cells per well in 6-well plate and treated with either DMSO control or up to 250 nM of compound 6. Cells were harvested after 24, 48, or 72 hrs of incubation and subjected to luciferase activity assay, RNA quantification and immunoblotting. Results were averaged from three independent repeats. Luciferase activity assay was done in triplets per experiment as aforementioned and RLU reading was normalized against the total protein level per sample determined from Bradford assay. Total RNA was isolated using RNeasy Mini Kit (QIAGEN) and the RNA concentrations were measured by spectrophotometry (GE Healthcare) followed by dilution into 50 ng/μL. Replicon RNA was quantitated in triplicates by amplifying the HCV 5′UTR using one-step real-time reverse transcriptase polymerase chain reactions (qRT-PCR). Each 20 μL replicate contained 100 ng of total RNA, 100 nM probe (6FAM-5′-[…]-3′-MGBNFQ, Applied Biosystems) and 200 nM forward and reverse primers (5′-[…]-3′, and 5′-[…]-3′ respectively, Yale University W.M. Keck Facility) (21), together with iScript reverse transcriptase and reaction mix for one-step RT-PCR (Bio-Rad Laboratories). Reactions were run in the iCycler iQ RealTime thermocycler detection system (Bio-Rad Laboratories) as follows: 10 min at 50° C., 5 min at 95° C., followed by 42 cycles at 95° C. for 15 sec and 60° C. for […]. Results were normalized against the β-actin mRNA levels in each sample (20).

MT-2 cells = assay: Cytotoxicity in uninfected MT-2 cells; assay type: cell-based; settings: uninfected MT-2 cells, 5 days; read-out: Cytotoxicity CC50 MT-2
Description: (§1) Determination of cytotoxicity and mitochondrial DNA toxicity. Exponentially growing Huh-7 cells were seeded at a density of 1×10^4 cells per well in a 24-well plate and incubated with TPP analogues for 3 days. Cells were fixed and stained with 0.5% methylene blue in 50% ethanol followed by extensive washing. After the plates were air dried, cells were solubilized in 1% sarkosyl and cell growth was determined from the extent of absorption by spectrophotometric measurements at 595 nm (Biotek Instruments). For compounds whose dark color interfered with 595-nm reading, cytotoxicity was measured by the CellTiter-Glo luminesecent cell viability assay following manufacturer's description (Promega). Cytotoxicity in MT-2 cells was determined from colorimetric quantitation of uninfected MT-2 cells after 5 days of coincubation.

[4] = system: HCV genotype 1b (Con1) replicon; assay: Effect of serum concentration on anti-HCV activity, luciferase assay in Huh-luc/neo-ET cells; assay type: cell-based, Hepatitis C virus; settings: for EC50: 72 hrs
Description: Cells were harvested after 72 hrs for luciferase activity assays.
Huh-luc/neo-ET cells were incubated with compound 1, 4 or 6 for 72 hrs and the anti-HCV activity was evaluated by measuring the reduction of reporter luciferase activities.

[5] = system: HCV genotype 1b (Con 1 isolate) subgenomic replicon; assay: microbe, parasite or virus in culture; assay type: cell-based, Hepatitis C virus
Description: Cells. HCV genotype 1b (Con 1 isolate) subgenomic replicon cell line with luciferase reporter (Huh-luc/neo-ET) was kindly provided by Ralf Bartenschlager from the University of Heidelberg (37). Huh-luc/neo-ET cells were cultured in Dulbecco's modified Eagle medium (DMEM , supplemented with 10% fetal bovine serum (FBS), 1 mM nonessential amino acids, and 250 μg/ml of G418 (Invitrogen). Genotype 2a (JFH-I isolate) subgenomic replicon cells YSGR-JFH were cultured in DMEM containing 10 To fetal calf serum, 1 mM nonessential amino acids and 400 μg/ml G418 (31). An additional genotype 1b (Conl) replicon cell line (4291BBix) was cultured in similar media but with 3 μg/ml blasticidin (22).
Determination of antiviral activities. Ff-luciferase reporter activity was used to monitor the replication of HCV replicons in Huhluc/neo-ET cells free from G418. Replicon cells were seeded at the density of 5×10^3 cells per well in 96-well plates. The following day, replicon cells were incubated in duplicates with DMSO or serially diluted tetraphenylporphyrin (TPP) analogues at 37″C. 72 hrs after co-incubation, cells were lysed with ice-cold passive lysis reagent after PBS wash, and the luciferase activity was measured with the luciferase assay kit (Promega) and Tecan FARCyte luminometer (GE Healthcare) following the manufacturers' descriptions. The relative light units (RLU) were adjusted as percentage readings of the compound-free controls and the 50% effective concentration (EC50) was determined from dose-effect curve by nonlinear regression analysis using Origin 6.1 (OriginLab Software). TPP analogues were also screened in vitro against HIV-I IIIB and HBV as previously described (26,41). Briefly 1×10^3 MT-2 cells per well were exposed in triplets to 0.1TC1D50/cell (50% of the tissue culture infectious dose) of HIV-1 IIIB and cultured in the presence of compounds. The EC50 values were estimated by MTT-based colorimetric quantitation of viral CPE after 5 days. Anti-HBV activities were evaluated in 2.2.15 cells by means of Southern DNA hybridization.

Huh-7 cells = assay: Cytotoxicity in Huh-7 cells (methylene blue or CellTiter-Glo); assay type: cell-based; settings: Huh-7 cells, 3 days; read-out: Cytotoxicity CC50 Huh-7
Description: as §1

O=C(O)c1cc(C(=O)O)cc(-c2ccc(-c3c4nc(c(-c5ccc(-c6cc(C(=O)O)cc(C(=O)O)c6)cc5)c5ccc([nH]5)c(-c5ccc(-c6cc(C(=O)O)cc(C(=O)O)c6)cc5)c5nc(c(-c6ccc(-c7cc(C(=O)O)cc(C(=O)O)c7)cc6)c6ccc3[nH]6)C=C5)C=C4)cc2)c1 [Compound 6, Meso-teftakis-(3,5-dicarboxy-4,4′-biphenyl)porphyrin]
effect on amount of mitochondrial DNAs [1]: did not alter the amount of mitochondrial DNAs
IC50 ([1]; CEM cells, read-out: Mitochondrial DNA Toxicity IC50 CEM): > 50000 nM
effect on mitochondrial potential [2]: did not affect the mitochondrial potential
improvement of 72-hr EC50 compared with 24-hrs incubation, luciferase ([3]; 72 hr vs 24 hr): over 3 fold
EC50 ([3]; read-out: 24-hr EC50, replicon luciferase activity, 24 hrs incubation): 57.8 nM
EC50 ([3]; read-out: 48-hr EC50, replicon luciferase activity, 48 hrs incubation): 19.2 nM
EC50 ([3]; read-out: 72-hr EC50, replicon luciferase activity, 72 hrs incubation): 17.6 nM
CC50 (MT-2 cells): 18000 ± 4240 nM
EC50 ([4]; 5% FBS, read-out: EC50 5% FBS): 13 ± 3 nM
EC50 ([4]; 40% FBS, read-out: EC50 40% FBS): 69 ± 11 nM
Fold Change in EC50 5% FBS ([4]; EC50 at 5% FBS as one fold): 1.00
EC50 ([4]; extrapolation of the plot of EC50 vs serum amount, read-out: EC50 0% FBS (Theoretical)): 6.5 nM
EC50 ([4]; read-out: EC50 10% FBS, 10% FBS): 24 ± 5 nM
EC50 ([4]; read-out: EC50 20% FBS, 20% FBS): 39 ± 5 nM
Fold Change in EC50 10% FBS ([4]; relative to EC50 at 5% FBS): 1.92 ± 0.22
Fold Change in EC50 20% FBS ([4]; relative to EC50 at 5% FBS): 3.20 ± 0.96
Fold Change in EC50 40% FBS ([4]; relative to EC50 at 5% FBS): 5.56 ± 0.85
selective index in culture (CC50/EC50) ([5]; CC50 in naïve Huh-7 cells / EC50): over 2000
EC50 ([5]; HCV replicons in vitro, read-out: anti-HCV EC50): 24 nM
EC50 ([5]; Huh-luc/neo-ET, 72 hrs, luciferase, read-out: Antiviral Activity EC50 HCV): 24 ± 5.1 nM
EC50 ([5]; Table 3, metal M in porphyrin core, read-out: EC50 anti-HCV activity, metallation of porphyrin core of compound 6): 19 ± 5.2 nM
improvement in anti-HCV EC50 over compound 2 ([5]; relative to lead compound 2): 75 fold
EC50 ([5]; unit inferred, read-out: EC50 against HCV genotype 1b Conl replicons): 24 ± 5 nM
CC50 (Huh-7 cells): > 50000 nM
